In patent US20070098735A1, “Methods for the Elimination of Pathogens and Other Particulate Agents” (priority 2005, published 2007):

What was measured:
[1] = system: lipid raft (LR) microdomain of the macrophage plasma membrane; test: Binding of exogenous HRP-labeled HSP70 to purified lipid raft fractions; set-up: species or system murine; details: HRP-labeled HSP70 100 μg/ml; with ganglioside GM1; Brij98 or Triton X-100
Experimental: Purification of lipid rafts. Lipid rafts were purified as DRMs (detergent resistant membrane) using non-ionic detergents following sucrose gradient centrifugation. […] After incubation, cells were washed 3× with PBS and lysed with 2 ml MES (4-morpholinoethanesulfonic acid) buffered saline (MBS; 150 mM NaCl, 20 mM MES, pH 6.5, […] and 5 mM iodoacetamide) containing 0.5% Triton X-100 or 1% for 30 minutes on ice or 7 minutes at 37° C. respectively. The cells were mixed with an equal volume of 90% sucrose in MEB buffer (150 mM NaCl, 20 mM MES [pH 6.5]) and placed at the bottom of the centrifuge tube. […] Fractions of 1 ml each were collected from the bottom of tube and each fraction was analyzed by SDS-PAGE and immunoblotting.
Briefly, RAW264.7 macrophages were treated with exogenous HRP-labeled HSP70 (100 μg/ml) or were left untreated for 60 minutes and washed with PBS three times to remove free HSPs. […] These fractions obtained (light: LR and heavy: non-LR) were then analyzed using immunoblotting to detect HRP activity of HSP70-HRP complexes or tested for the presence of an LR-associated ganglioside GM1 by using HRP-cholera toxin B. Similarly, these fractions were tested for the amount of cholesterol using (Biovision Research Products, CA). […]

[2] = system: full thickness surgical wounds on the dorsum of BALB/cJ mice; test: Closure of full thickness surgical wounds, percent wound closure; type: in vivo

HSP70: heat shock protein purified from murine livers, prepared as a complex with endogenous peptide
localisation of exogenously administered HSP70 [1]: co-localized on the LR-microdomain of the macrophage plasma membrane | wound closure compared to controls ([2]; 5 μg/dose and 50 μg/dose, day 2): significant wound closure | wound healing at Day 11 ([2]; 30 μg/dose SC on days 0, 2, 4 and 6): completely healed | dose with the most significant difference in wound closure ([2]; doses 5, 30, 50 μg/dose tested): 30 μg/dose
